Molecular target: T1, Na+-dependent bile acid transportation system (Oryctolagus cuniculus, UniProt Q28727)
T1 construct: Brush border membrane vesicles were prepared from the intestinal cells of the small intestine; from tissue; host or cells: terminal 7/10 of the small intestine (ileum) of male New Zealand rabbits, mucosal brush border membrane vesicles
T1 sequence (Q28727 1-347): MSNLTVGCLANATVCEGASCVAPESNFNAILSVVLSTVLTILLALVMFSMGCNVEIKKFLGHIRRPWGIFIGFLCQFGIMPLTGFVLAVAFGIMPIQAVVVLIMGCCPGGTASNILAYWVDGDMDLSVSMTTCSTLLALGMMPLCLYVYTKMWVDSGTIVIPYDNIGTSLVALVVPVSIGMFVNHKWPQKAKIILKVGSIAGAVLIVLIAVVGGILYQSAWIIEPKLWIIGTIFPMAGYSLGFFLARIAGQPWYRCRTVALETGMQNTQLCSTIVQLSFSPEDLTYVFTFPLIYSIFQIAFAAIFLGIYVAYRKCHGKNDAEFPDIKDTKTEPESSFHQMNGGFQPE
Test: Inhibition of [3H]-taurocholate uptake in brush border membrane vesicles from the ileum of rabbits
Assay type: biochemical
Details: Na+-dependent [3H]-taurocholate uptake (difference Na-T-P minus K-T-P), 50 μM taurocholate, rabbit ileum brush border membrane vesicles; drawing 7
Experimental: The compounds according to the invention were tested biologically by determination of the inhibition of [^3 H]taurocholate uptake in the brush border membrane vesicles from the ileum of rabbits. The inhibition test was carried out as follows:
1. Preparation of brush border membrane vesicles from the ileum of rabbits
Brush border membrane vesicles were prepared from the intestinal cells of the small intestine by the so-called Mg^2+ precipitation method. Male New Zealand rabbits (2 to 2.5 kg body weight) were sacrificed by intravenous injection of 0.5 ml of an aqueous solution of 2.5 mg of tetracaine HCl, 100 T 61^R and 25 mg of mebezonium iodide. The small intestine was removed and rinsed with ice-cold physiological saline solution. The terminal 7/10 of the small intestine (measured in the oral-rectal direction, i.e. the terminal ileum, which contains the active Na^+ -dependent bile acid transportation system) was used for preparation of the brush border membrane vesicle. The intestines were frozen in plastic bags under nitrogen at -80° C. For preparation of the membrane vesicles, the frozen intestines were thawed at 30° C. in a water bath. The mucosa was scraped off and suspended in 60 ml of ice-cold 12 mM Tris/HCl buffer (pH 7.1)/300 mM mannitol, 5 mM EGTA/10 mg/1 of phenylmethylsulfonyl fluoride/1 mg/1 of trypsin inhibitor from soybeans (32 U/mg)/0.5 mg/1 of trypsin inhibitor from bovine lung (193 U/mg)/5 mg/1 of bacitracin. After dilution to 300 ml with ice-cold distilled water, the mixture was homogenized with an Ultraturrax (18-rod, IKA Werk Staufen, FRG) for 3 minutes at 75% of the maximum output, while cooling with ice. After addition of 3 ml of 1M MgCl2 solution (final concentration 10 mM), the mixture was left to stand at 0° C. for exactly 1 minute. The cell membranes aggregate by addition of Mg^2+ and precipitate, with the exception of the brush border membranes. After centrifugation at 3000× g (5000 rpm, SS-34 rotor) for 15 minutes, the precipitate was discarded, and the supernatant, which contained the brush border membranes, was centrifuged at […] (15000 rpm, SS-34 rotor) for 30 minutes. The supernatant was discarded and the precipitate was rehomogenized in 60 ml of 12 mM Tris/HCl buffer (pH 7.1)/60 mM mannitol, 5 mM EGTA using a Potter Elvejhem homogenizer (Braun, Melsungen, 900 rpm, 10 strokes). After addition of 0.1 ml of 1 M MgCl2 solution and an incubation time of 15 minutes at 0° C., the mixture was centrifuged again at 3000× g for 15 minutes. The supernatant was then centrifuged again at 46000× g (15000 rpm, SS-34 rotor) for 30 minutes. The precipitate was taken up in 30 ml of 10 mM Tris/Hepes buffer (pH 7.4)/300 mM mannitol and resuspended homogeneously by 20 strokes in a Potter Elvejhem homogenizer at 1000 rpm. After centrifugation at 48000× g (20000 rpm, SS-34 rotor) for 30 minutes, the precipitate was taken up in 0.5 to 2 ml of Tris/Hepes buffer (pH 7.4)/280 mM mannitol (final concentration 20 mg/ml) and resuspended with the aid of a tuberculin syringe with a 27 gauge needle. The vesicles were either used immediately for transportation studies after preparation, or stored at -196° C. in portions of 4 mg in liquid nitrogen.
2. Inhibition of Na^+ -dependent [^3 H]-taurocholate uptake in the brush border membrane vesicles of the ileum
The uptake of substrates into the brush border membrane vesicles described above was determined by means of the so-called membrane filtration technique. 10 μl of the vesicle suspension (100 μg of protein) were pipetted as drops onto the wall of a polystyrene incubation tube (11×70 mm) which contained the incubation medium with the corresponding ligands (90 μl). […]

| Structure (SMILES) | quotient of the IC50Na value of taurochenodesoxycholate (TCDC) standard and the particular substance |
| --- | --- |
| C[C@H](CCC(=O)O)[C@H]1CC[C@H]2[C@@H]3[C@H](O)C[C@@H]4C[C@H](CCNC(=O)c5cccc6ccccc56)CC[C@]4(C)[C@H]3C[C@H](O)[C@]12C [Example 33] | 0.35 |
| C[C@H](CCC(=O)O)[C@H]1CC[C@H]2[C@@H]3[C@H](O)C[C@@H]4C[C@@H](OCCCCCCCCCO)CC[C@]4(C)[C@H]3C[C@H](O)[C@]12C [Example 4] | 0.69 |
| C[C@H](CCC(=O)O)[C@H]1CC[C@H]2[C@@H]3[C@H](O)C[C@@H]4C[C@@H](OCCCCCCOP(=O)(Oc5ccccc5)Oc5ccccc5)CC[C@]4(C)[C@H]3C[C@H](O)[C@]12C [Example 18] | 0.42 |
| C[C@H](CCC(=O)O)[C@H]1CC[C@H]2[C@@H]3[C@H](O)C[C@@H]4C[C@@H](OCCCCCCCCO)CC[C@]4(C)[C@H]3C[C@H](O)[C@]12C [Example 3] | 0.35 |
| Cc1ccc(S(=O)(=O)NCCCCCCO[C@H]2CC[C@@]3(C)[C@@H](C2)C[C@@H](O)[C@@H]2[C@@H]3C[C@H](O)[C@]3(C)[C@@H]([C@H](C)CCC(=O)O)CC[C@@H]23)cc1 [Example 35] | 1.02 |
| COc1ccc(Cl)cc1C(=O)NCCc1ccc(S(=O)(=O)NC(=O)NCCCCCCO[C@H]2CC[C@@]3(C)[C@@H](C2)C[C@@H](O)[C@@H]2[C@@H]3C[C@H](O)[C@]3(C)[C@@H]([C@H](C)CCC(=O)O)CC[C@@H]23)cc1 [Example 40] | 0.50 |
| C[C@H](CCC(=O)O)[C@H]1CC[C@H]2[C@@H]3[C@H](O)C[C@@H]4C[C@@H](OCCCCCCNC(N)=O)CC[C@]4(C)[C@H]3C[C@H](O)[C@]12C [Example 21] | 0.33 |
| Cc1ccc(S(=O)(=O)N(C)CCCCCCO[C@H]2CC[C@@]3(C)[C@@H](C2)C[C@@H](O)[C@@H]2[C@@H]3C[C@H](O)[C@]3(C)[C@@H]([C@H](C)CCC(=O)O)CC[C@@H]23)cc1 [Example 36] | 0.20 |
| C[C@H](CCC(=O)O)[C@H]1CC[C@H]2[C@@H]3[C@H](O)C[C@@H]4C[C@@H](OCCCCCCNC(=O)c5cccc6ccccc56)CC[C@]4(C)[C@H]3C[C@H](O)[C@]12C [Example 38] | 0.41 |
| C[C@H](CCC(=O)O)[C@H]1CC[C@H]2[C@@H]3[C@H](O)C[C@@H]4C[C@@H](OCCCCCCNC(=O)[C@H](O)[C@@H](O)[C@H](O)[C@H](O)CO)CC[C@]4(C)[C@H]3C[C@H](O)[C@]12C [Example 43] | 0.73 |
